What was measured:
GST-Flk1 = molecular target: T1, GST-Flk1 (Mus musculus, UniProt P35918); experiment: GST-FLK-1 bioassay (ELISA, tyrosine kinase activity on poly(glu,tyr)); assay type: biochemical
T1 construct: GST-Flk1cd purified from sf9 recombinant baculovirus transformation (SUGEN, Inc.); host or cells: Sf9 insect cells (recombinant baculovirus)
Method: The assays described herein are performed in an ELISA (Enzyme-Linked Immunosorbent Sandwich Assay) format (Voller, et al., 1980, “Enzyme-Linked Immunosorbent Assay,” Manual of Clinical Immunology, 2d ed., Rose and Friedman, Am. Soc. Of Microbiology, Washington, D.C., pp. 359-371). The general procedure is as follows: a compound is introduced to cells expressing the test kinase, either naturally or recombinantly, for a selected period of time after which, if the test kinase is a receptor, a ligand known to activate the receptor is added. The cells are lysed and the lysate is transferred to the wells of an ELISA plate previously coated with a specific antibody recognizing the substrate of the enzymatic phosphorylation reaction. Non-substrate components of the cell lysate are washed away and the amount of phosphorylation on the substrate is detected with an antibody specifically recognizing phosphotyrosine compared with control cells that were not contacted with a test compound.
This assay analyzes the tyrosine kinase activity of GST-Flk1 on poly(glu,tyr) peptides.
• 1. Corning 96-well ELISA plates (Corning Catalog No. 5805-96). • 2. poly(glu,tyr) 4:1, lyophilizate (Sigma Catalog #P0275). • 3. Preparation of poly(glu,tyr)(pEY) coated assay plates: Coat 2 ug/well of poly(glu,tyr)(pEY) in 100 μL PBS, hold at room temperature for 2 hours or at 4° C. overnight. Cover plates well to prevent evaporation. • 4. PBS Buffer: for 1 L, mix 0.2 g KH2PO4, 1.15 g Na2HPO4, 0.2 g KCl and 8 g NaCl in approx. 900 ml dH2O. When all reagents have dissolved, adjust the pH to 7.2 with HCl. Bring total volume to 1 L with dH2O. • 5. PBST Buffer: to 1 L of PBS Buffer, add 1.0 ml Tween-20. • 6. TBB—Blocking Buffer: for 1 L, mix 1.21 g TRIS, 8.77 g NaCl, 1 ml TWEEN-20 in approximately 900 ml dH2O. Adjust pH to 7.2 with HCl. Add 10 g BSA, stir to dissolve. Bring total volume to 1 L with dH2O. Filter to remove particulate matter. • 7. 1% BSA in PBS: To make a 1× working solution, add 10 g BSA to approx. 990 ml PBS buffer, stir to dissolve. Adjust total volume to 1 L with PBS buffer, filter to remove particulate matter. • 8. 50 mM Hepes pH 7.5. • 9. GST-Flk1cd purified from sf9 recombinant baculovirus transformation (SUGEN, Inc.). • 10. 4% DMSO in dH2O. • 11. 10 mMATP in dH2O. • 12. 40 mM MnCl2 • 13. Kinase Dilution Buffer (KDB): mix 10 ml Hepes (pH 7.5), 1 ml 5M NaCl, 40 μL 100 mM sodium orthovanadate and 0.4 ml of 5% BSA in dH2O with 88.56 ml dH2O. • 14. NUNC 96-well V bottom polypropylene plates, Applied Scientific Catalog #AS-72092 • 15. EDTA: mix 14.12 g ethylenediaminetetraacetic acid (EDTA) to approx. 70 ml dH2O. Add 10 N NaOH until EDTA dissolves. Adjust pH to 8.0. Adjust total volume to 100 ml with dH2O. • 16. 1^0 Antibody Dilution Buffer: mix 10 ml of 5% BSA in PBS buffer with 89.5 ml TBST. • 17. Anti-phosphotyrosine monoclonal antibody conjugated to horseradish peroxidase (PY99 HRP, Santa Cruz Biotech). • 18. 2,2′-Azinobis(3-ethylbenzthiazoline-6-sulfonic acid (ABTS, Moss, Cat. No. ABST). • 19. 10% SDS. Procedure: • 1. Coat Corning 96-well ELISA plates with 2 μg of polyEY peptide in sterile PBS as described in step 3 of Materials and Reagents. • 2. Remove unbound liquid from wells by inverting plate. Wash once with TBST. Pat the plate on a paper towel to remove excess liquid. • 3. Add 100 μl of 1% BSA in PBS to each well. Incubate, with shaking, for 1 hr. at room temperature. • 4. Repeat step 2. • 5. Soak wells with 50 mM HEPES (pH7.5) (150 μl/well). • 6. Dilute test compound with dH2O/4% DMSO to 4 times the desired final assay concentration in 96-well polypropylene plates. • 7. Add 25 μl diluted test compound to ELISA plate. In control wells, place 25 μl of dH2O/4% DMSO. • 8. Add 25 μl of 40 mM MnCl2 with 4×ATP (2 μM) to each well. • 9. Add 25 μl 0.5M EDTA to negative control wells. • 10. Dilute GST-Flk1 to 0.005 μg (5 ng)/well with KDB. • 11. Add 50 μl of diluted enzyme to each well. • 12. Incubate, with shaking, for 15 minutes at room temperature. • 13. […]

PDGFR = molecular target: T2, PDGFR (Homo sapiens, UniProt P09619); experiment: PDGFR bioassay (ELISA, in vitro kinase activity); assay type: biochemical; details: PDGFR-β expressing NIH 3T3 cell lysate; read-out: IC50 (μM) PDGF-R
T2 construct: SUGEN, Inc; host or cells: NIH 3T3 cell lysate; receptor captured on plate with monoclonal anti-PDGFR antibody 28D4C10
T2 sequence (P09619 33-1106, species assumed): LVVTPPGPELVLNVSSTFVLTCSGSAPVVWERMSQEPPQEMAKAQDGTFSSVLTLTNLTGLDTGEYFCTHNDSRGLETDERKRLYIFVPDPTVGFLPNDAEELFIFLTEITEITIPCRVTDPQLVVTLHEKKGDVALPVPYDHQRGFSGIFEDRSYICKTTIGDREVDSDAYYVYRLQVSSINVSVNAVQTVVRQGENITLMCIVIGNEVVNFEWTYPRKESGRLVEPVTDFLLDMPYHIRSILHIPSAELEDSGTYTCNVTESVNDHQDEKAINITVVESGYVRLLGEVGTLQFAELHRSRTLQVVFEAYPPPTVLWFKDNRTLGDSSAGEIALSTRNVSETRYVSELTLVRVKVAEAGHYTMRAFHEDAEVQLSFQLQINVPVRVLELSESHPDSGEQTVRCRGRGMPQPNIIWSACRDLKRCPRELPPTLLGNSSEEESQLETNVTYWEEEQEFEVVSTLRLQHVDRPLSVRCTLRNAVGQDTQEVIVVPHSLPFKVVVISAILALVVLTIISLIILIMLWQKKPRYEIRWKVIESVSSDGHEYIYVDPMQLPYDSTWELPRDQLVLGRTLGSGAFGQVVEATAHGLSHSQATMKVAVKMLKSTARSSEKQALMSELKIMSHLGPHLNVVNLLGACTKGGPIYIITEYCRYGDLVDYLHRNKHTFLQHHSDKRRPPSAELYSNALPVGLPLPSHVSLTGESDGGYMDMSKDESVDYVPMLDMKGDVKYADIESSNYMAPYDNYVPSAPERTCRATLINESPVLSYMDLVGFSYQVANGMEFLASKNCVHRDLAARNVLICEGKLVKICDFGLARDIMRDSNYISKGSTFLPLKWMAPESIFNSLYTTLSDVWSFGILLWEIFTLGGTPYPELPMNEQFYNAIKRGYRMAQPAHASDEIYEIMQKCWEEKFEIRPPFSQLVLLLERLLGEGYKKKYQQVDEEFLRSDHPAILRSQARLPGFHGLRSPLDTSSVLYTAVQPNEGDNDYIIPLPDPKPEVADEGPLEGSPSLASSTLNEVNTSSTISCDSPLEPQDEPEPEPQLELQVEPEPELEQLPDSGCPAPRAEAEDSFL

T1 sequence (P35918 784-1345 limits assumed): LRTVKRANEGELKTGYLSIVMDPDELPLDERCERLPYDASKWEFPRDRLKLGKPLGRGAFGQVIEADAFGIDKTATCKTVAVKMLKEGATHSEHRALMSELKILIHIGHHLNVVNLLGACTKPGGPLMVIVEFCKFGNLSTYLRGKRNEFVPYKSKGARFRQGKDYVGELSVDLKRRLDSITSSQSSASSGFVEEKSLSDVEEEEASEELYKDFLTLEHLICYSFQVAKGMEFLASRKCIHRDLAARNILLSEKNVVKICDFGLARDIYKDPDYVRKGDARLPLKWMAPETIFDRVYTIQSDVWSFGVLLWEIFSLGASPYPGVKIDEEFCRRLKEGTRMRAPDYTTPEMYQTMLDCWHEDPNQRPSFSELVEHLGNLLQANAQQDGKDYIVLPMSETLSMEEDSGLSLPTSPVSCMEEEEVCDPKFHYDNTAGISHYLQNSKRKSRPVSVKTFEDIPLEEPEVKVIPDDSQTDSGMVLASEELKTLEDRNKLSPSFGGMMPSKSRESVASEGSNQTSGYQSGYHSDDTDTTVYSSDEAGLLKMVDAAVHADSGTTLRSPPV

IC50 (GST-Flk1) [µM]	IC50 (PDGFR) [µM]	Structure (SMILES)
> 20	> 20	Nc1cccc(Nc2ncc(-c3csc4ccccc34)cn2)c1 [Example 20, N-[5-(1-benzothien-3-yl)pyrimidin-2-yl]benzene-1,3-diamine]
2.4	0.09	O=C(CNCCN1CCOCC1)Nc1cccc(Nc2ncc(-c3ccsc3)cn2)c1 [Example 56, 2-(2-morpholin-4-yl-ethylamino)-N-[3-(5-thiophen-3-yl-pyrimidin-2-ylamino)-phenyl]-acetamide]
